Measured values taken from ChEMBL document CHEMBL1201862, “PubChem BioAssay data set” (2004).
Each block holds one compound with its values, some of them ahead of it. Active and inactive are the calls of the source.

What was measured:
Format in all cases: functional
[1] = target: T1, High affinity choline transporter 1 (Homo sapiens, UniProt Q9GZV3); assay: human choline transporter radiolabel uptake blockers – cell-based, 3H-choline uptake, CHT LV-AA trafficking mutant, CRC, dose response (AID 602208)
T1 sequence (Q9GZV3 whole entry): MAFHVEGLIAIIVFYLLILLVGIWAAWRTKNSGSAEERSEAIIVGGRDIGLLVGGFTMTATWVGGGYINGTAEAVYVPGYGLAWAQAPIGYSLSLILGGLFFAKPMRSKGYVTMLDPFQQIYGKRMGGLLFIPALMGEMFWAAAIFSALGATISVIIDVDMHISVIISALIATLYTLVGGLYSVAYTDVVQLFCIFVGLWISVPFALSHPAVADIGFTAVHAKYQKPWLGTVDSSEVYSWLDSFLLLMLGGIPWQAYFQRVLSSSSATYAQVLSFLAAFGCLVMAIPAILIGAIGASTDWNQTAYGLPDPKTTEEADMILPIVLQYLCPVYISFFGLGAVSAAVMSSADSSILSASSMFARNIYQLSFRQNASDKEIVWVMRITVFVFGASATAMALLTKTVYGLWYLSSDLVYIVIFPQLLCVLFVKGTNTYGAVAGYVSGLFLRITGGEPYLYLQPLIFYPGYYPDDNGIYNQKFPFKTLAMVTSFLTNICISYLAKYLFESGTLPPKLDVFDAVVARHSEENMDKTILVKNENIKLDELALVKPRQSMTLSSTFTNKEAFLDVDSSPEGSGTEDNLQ

[2] = target: T1, High affinity choline transporter 1; assay: human choline transporter blockers, potency – cell-based, 5-point CRC, membrane potential dye, dose response (AID 504840)
[3] = target: T1, High affinity choline transporter 1; assay: human choline transporter blockers, potency – cell-based, 10-point CRC, membrane potential dye, dose response (AID 588401);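 note: membrane potential dye fluorescence of choline-evoked depolarization via CHT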
[4] = target: Ras and Rab interactor 1/Tyrosine-protein kinase ABL1 (Homo sapiens, UniProt P00519+Q13671);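 note: biochemical TR-FRET dose-response test measuring inhibition of binding between Rin1 and Abl proteins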
Chain of Ras and Rab interactor 1/Tyrosine-protein kinase ABL1 (P00519 whole entry): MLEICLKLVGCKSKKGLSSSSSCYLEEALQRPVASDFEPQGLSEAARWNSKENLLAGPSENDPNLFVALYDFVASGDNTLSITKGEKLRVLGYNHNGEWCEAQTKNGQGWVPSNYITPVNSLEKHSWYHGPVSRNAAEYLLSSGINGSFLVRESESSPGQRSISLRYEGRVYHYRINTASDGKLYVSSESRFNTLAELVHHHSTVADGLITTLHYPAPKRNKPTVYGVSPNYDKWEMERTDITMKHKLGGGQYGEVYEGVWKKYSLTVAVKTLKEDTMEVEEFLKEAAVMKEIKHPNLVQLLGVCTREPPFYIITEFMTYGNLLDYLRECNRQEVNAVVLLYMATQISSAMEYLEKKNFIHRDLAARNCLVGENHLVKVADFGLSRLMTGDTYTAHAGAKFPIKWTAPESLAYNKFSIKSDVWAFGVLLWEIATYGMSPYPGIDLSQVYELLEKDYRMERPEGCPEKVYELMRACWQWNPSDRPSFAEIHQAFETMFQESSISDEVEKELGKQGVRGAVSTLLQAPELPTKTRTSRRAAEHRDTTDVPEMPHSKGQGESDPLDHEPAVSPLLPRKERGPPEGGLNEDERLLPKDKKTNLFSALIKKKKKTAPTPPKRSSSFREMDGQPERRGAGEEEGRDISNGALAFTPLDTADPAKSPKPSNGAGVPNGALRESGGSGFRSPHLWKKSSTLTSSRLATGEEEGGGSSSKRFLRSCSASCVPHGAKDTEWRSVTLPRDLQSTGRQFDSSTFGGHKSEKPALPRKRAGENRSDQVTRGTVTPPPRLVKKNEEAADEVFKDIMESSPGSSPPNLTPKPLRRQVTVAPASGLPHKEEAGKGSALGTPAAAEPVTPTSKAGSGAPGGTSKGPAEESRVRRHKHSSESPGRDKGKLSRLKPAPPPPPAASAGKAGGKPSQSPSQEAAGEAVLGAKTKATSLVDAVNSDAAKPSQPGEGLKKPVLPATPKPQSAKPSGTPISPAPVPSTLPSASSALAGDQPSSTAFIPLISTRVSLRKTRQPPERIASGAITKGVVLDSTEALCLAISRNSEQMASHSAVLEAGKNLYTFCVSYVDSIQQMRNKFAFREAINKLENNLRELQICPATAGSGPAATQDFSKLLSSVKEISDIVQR
Chain of Ras and Rab interactor 1/Tyrosine-protein kinase ABL1 (Q13671 whole entry): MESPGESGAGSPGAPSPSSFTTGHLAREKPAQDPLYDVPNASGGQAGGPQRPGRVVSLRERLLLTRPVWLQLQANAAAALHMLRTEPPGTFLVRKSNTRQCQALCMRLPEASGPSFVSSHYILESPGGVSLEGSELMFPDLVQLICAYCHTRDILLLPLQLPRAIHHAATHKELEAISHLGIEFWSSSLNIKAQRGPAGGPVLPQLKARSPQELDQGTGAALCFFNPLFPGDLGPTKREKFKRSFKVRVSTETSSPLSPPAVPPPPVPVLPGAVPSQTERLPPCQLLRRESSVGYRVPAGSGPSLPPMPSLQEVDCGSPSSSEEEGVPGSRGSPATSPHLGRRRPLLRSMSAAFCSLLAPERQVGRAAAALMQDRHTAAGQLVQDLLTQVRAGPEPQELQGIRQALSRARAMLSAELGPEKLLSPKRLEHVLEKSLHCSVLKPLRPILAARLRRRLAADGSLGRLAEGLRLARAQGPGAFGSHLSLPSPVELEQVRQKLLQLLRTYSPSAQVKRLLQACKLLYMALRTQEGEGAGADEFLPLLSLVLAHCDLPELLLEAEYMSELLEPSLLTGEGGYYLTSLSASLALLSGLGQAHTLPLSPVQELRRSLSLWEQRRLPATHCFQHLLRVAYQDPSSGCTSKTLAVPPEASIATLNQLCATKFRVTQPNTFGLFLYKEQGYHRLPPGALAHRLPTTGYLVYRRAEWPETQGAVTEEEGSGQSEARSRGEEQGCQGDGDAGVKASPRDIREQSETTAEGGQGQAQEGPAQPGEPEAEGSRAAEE

Aurora kinase A = target: T2, Aurora kinase A (Homo sapiens, UniProt O14965);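 note: value from the Navigating the Kinome kinase panel profiling, panel entry STK6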
T2 sequence (O14965 whole entry): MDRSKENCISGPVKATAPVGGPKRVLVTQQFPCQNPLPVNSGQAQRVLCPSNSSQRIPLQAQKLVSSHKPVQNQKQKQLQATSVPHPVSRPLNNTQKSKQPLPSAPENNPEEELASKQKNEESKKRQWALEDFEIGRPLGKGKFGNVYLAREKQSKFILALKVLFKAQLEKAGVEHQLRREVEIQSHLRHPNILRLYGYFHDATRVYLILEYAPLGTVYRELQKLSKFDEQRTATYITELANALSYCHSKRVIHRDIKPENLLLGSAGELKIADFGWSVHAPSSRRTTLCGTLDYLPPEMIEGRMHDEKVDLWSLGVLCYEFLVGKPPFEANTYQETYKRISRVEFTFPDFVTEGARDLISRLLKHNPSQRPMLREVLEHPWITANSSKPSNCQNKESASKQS

[5] = target: Vascular endothelial growth factor receptor 2 (Homo sapiens, UniProt P35968)
Chain of Vascular endothelial growth factor receptor 2 (P35968 whole entry): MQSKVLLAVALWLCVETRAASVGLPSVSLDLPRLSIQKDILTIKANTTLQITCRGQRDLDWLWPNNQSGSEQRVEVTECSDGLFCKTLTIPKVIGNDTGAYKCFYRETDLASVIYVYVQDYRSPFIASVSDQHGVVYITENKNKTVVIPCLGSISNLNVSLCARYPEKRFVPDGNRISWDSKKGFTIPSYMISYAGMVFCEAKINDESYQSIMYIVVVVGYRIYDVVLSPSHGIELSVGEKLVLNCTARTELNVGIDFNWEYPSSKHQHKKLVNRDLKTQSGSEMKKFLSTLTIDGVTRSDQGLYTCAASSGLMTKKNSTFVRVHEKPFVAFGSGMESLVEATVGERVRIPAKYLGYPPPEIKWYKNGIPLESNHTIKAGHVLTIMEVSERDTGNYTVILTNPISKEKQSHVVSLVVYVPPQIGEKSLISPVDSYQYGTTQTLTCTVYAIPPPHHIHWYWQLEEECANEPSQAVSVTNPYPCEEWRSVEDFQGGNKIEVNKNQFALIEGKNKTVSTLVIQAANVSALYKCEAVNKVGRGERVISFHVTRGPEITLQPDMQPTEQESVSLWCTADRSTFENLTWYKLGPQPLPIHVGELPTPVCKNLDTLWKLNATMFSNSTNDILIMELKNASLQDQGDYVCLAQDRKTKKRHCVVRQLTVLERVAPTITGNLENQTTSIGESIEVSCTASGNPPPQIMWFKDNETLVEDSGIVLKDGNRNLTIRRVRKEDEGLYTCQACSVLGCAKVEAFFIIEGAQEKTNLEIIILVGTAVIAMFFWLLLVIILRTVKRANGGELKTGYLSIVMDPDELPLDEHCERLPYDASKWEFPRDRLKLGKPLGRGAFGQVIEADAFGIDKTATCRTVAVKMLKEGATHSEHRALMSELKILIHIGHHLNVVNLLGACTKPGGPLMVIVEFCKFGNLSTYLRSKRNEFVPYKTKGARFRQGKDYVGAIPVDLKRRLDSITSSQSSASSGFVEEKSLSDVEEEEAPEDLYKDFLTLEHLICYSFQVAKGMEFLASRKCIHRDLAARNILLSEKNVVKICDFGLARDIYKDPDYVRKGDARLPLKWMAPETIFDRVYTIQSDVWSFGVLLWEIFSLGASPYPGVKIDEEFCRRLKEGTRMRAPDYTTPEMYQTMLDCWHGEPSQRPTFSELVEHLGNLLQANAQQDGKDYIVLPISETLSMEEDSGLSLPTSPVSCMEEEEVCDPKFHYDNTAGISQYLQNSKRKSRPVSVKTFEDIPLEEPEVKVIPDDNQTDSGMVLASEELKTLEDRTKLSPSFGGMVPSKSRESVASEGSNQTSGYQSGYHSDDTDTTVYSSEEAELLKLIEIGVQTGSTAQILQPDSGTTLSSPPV

Aurora kinase B = Aurora kinase B (Homo sapiens, UniProt Q96GD4)
Chain of Aurora kinase B (Q96GD4 whole entry): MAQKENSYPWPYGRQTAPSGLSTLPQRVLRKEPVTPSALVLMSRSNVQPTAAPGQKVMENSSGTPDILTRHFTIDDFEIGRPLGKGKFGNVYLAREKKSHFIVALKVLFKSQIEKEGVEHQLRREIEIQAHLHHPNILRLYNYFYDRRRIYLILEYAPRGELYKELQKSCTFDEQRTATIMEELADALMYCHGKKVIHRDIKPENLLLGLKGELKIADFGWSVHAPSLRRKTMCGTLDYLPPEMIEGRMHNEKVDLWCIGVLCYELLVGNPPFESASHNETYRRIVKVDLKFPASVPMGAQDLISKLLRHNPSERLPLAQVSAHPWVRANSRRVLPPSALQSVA

Compound: CC(NC(=O)c1ccc(OC2CCN(Cc3ccccn3)CC2)cc1)c1ccccc1 (configuration not stated)
IC50 [1]: 1790 nM (active)
IC50 [2]: 1600 nM (active)
IC50 [3]: 1260 nM (active)

IC50 [4]: 2480 nM (active)
Compound: N#Cc1ccccc1Sc1ccccc1C(=O)NCC(c1ccco1)N1CCCC1 (configuration not stated)

Ki (Aurora kinase A): 50.1 nM (active)
Ki [5]: 631 nM (active)
Ki (Aurora kinase B): 15.8 nM (active)
Compound: COc1cc(Nc2ncc(C(F)(F)F)c(OC)n2)cc(OC)c1OC
